The values below come from patent US20060111305A1, “Metabolites of certain [1,4]diazepino[6,7,1-ij]quinoline derivatives and methods of preparation and use thereof” (Wyeth, priority 2004, published 2006).

SMILES strings stand for the structures.

Data set [1] is described as follows: Rat fecal excretion and metabolite profiles after single oral 5 mg/kg [14C]DCDQ. The data set is classed as in vivo, Sprague-Dawley rats. As to conditions: male rats. As to the method: At sacrifice, blood samples were collected by cardiac puncture into tubes containing EDTA as the anticoagulant and placing them on ice. Aliquots of 50 μL were removed for combustion and determination of radioactivity content. Plasma was immediately obtained from the remaining blood by centrifugation at 4° C. Brains were excised after perfusion with 50 mL of chilled sterile saline. Urine samples were collected on dry ice at intervals of 0-8 and 8-24 hour post-dosing. Feces were collected at intervals of 0-8 and 8-24 hr post-dosing at room temperature and were homogenized as described previously. The biological specimens and aliquots of the dosing solution at pre- and post-dose were stored at approximately −70° C. until analyzed.
Brain and fecal samples were weighed and homogenized in water at volume-to-weight ratios of about 1:1 and 5:1, respectively. Blood aliquots (50 μL), brain homogenates (0.1 gram) and fecal homogenates (0.2 gram) were placed on Combusto-cones with Combusto-pads and combusted. A model 307 Tri-Carb Sample Oxidizer, equipped with an Oximate-80 Robotic Automatic Sampler (Perkin Elmer), was used for combustion. The liberated ^14CO2 was trapped with Carbo-Sorb E carbon dioxide absorber, mixed with PermaFluor® E+ liquid scintillation cocktail, and counted in a Tri-Carb Model 3100 TR/LL liquid scintillation counter (Perkin Elmer). The oxidation efficiency of the oxidizer was 98.2%.
Fecal homogenates were analyzed for metabolite profiles. Aliquots of 1 gram of fecal homogenates were mixed with 2 mL methanol, placed on ice for about 10 minutes and centrifuged. The supernatant was transferred to a clean tube. The residue was extracted three times with 2 mL of a water:methanol (3:7) mixture. The supernatants of each sample were combined, evaporated to about 1 mL, and centrifuged. Extraction efficiency was determined by analyzing aliquots of 10 μL of the supernatant for radioactivity. An aliquot (50-200 μL) of the supernatant was analyzed by HPLC with radioactivity flow detection for profiling. Samples were also analyzed by LC/MS to characterize the radioactive peaks.
A Waters model 2690 HPLC system (Waters Corp., Milford, Mass.) with a built-in autosampler was used for analysis. Separations were accomplished on a Phenomenex Luna C18(2) column (150×2.0 mm, 5 μm) (Phenomenex, Torrance, Calif.). The sample chamber of the autosampler was maintained at 4° C., while the column was at ambient temperature of about 20° C. A variable wavelength UV detector set to monitor 250 nm and a Flo-One β Model A525 radioactivity detector described above were used for data acquisition. The HPLC mobile phase consisted of 10 mM ammonium acetate, pH 4.5 (A) and methanol (B), and was delivered at 0.2 mL/min. […]

Data set [2] is described as follows: Incubation of [14C]DCDQ with dog liver microsomes. It is filed as in vitro ADME, beagle dogs. As to the method: (§1) [^14C]DCDQ was mixed with non-radiolabeled DCDQ (1:3 or 1:5) in the incubations. Microsomal incubations consisted of [^14C]DCDQ, magnesium chloride (10 mM) and liver microsomes incubated in 0.5 mL of 0.1 M potassium phosphate buffer, pH 7.4. [^14C]DCDQ (20 μL) in water was added to the incubation tubes containing buffer, magnesium chloride solution and microsomes. After mixing, the tubes were pre-incubated for 2 minutes in a shaking water bath at 37° C. The reactions were initiated by the addition of UDPGA or the NADPH regenerating system. UDPGA was added to incubations as a 50 μL aliquot of a 20 mM solution in water, to give a final concentration of 2 mM. An NADPH regenerating system (30 μL) was added to incubations to evaluate CYP450-mediated metabolism. The NADPH regenerating system consisted of glucose-6-phosphate (2 mg/mL), glucose-6-phosphate dehydrogenase (0.8 units/mL) and NADP^+ (2 mg/mL). Control incubations were conducted under the same conditions, but without the NADPH generating system, UDPGA or microsomes. All incubations were performed in duplicate. Incubations were stopped by the addition of 0.5 mL ice-cold methanol. Samples were vortex-mixed. Denatured proteins were separated by centrifugation at 4300 rpm and 4° C. for 10 minutes (Model T21 super centrifuge, Sorvall). The protein pellets were extracted with 0.5 mL of methanol. The supernatant was combined for each sample, mixed and evaporated to a volume of about 0.3 mL under a nitrogen stream in a Zymark TurboVap LV evaporator (Caliper Life Science, Hopkinton, Mass.). The concentrated sample was centrifuged and aliquots were radioassayed and analyzed by HPLC. This method recovered an average of 92.1% of the radioactivity from the reaction mixture.
(§2) To evaluate species differences in cytochrome P450- and UGT-mediated metabolism, [^14C]DCDQ was incubated for 20 minutes with 0.5 mg/mL liver microsomal proteins from mice, rats, dogs or humans in the presence of the NADPH regenerating system or UDPGA. The assay conditions were the same as described above, and DCDQ concentrations were 12 μM and 56 μM for cytochrome P450- and UGT-mediated metabolism, respectively.
(§3) A Waters model 2690 HPLC system (Waters Corp., Milford, Mass.) with a built-in autosampler was used for analysis. Separations were accomplished on a Phenomenex Luna C18(2) column (2×150 mm, 5 μm) (Phenomenex, Torrance, Calif.) coupled with a filter (4×2 mm) cartridge. A variable wavelength UV detector set to monitor 250 nm and Flo-One β Model A525 radioactivity flow detector (Perkin Elmer) with a 250 μL LQTR flow cell were used for data acquisition. The flow rate of Ultima Flow M scintillation fluid was 1 mL/min, providing a mixing ratio of scintillation cocktail to mobile phase of 5:1. […]
On the technique in general: Microsomes from liver hold many membrane-bound enzymes, among them those of drug oxidation.

Data set [3] in a line: Incubation of [14C]DCDQ with mouse liver microsomes. The data set is classed as in vitro ADME, CD-1 mice. As to the method:
as §1, §2, §3

The mark [4] stands for this setting: NADPH regenerating system, 12 μM DCDQ, 20 min.

Regarding `c1cc2c3c(c1)[C@H]1CCC[C@H]1CN3CCNC2` [DCDQ, (9aR,12aS)-4,5,6,7,9,9a,10,11,12,12a-decahydro-cyclopenta[c][1,4]diazepine[6,7,1-ij]quinoline, reference compound], in data set [1] (8-24 hour fecal extracts), the “relative abundance in fecal extracts” value was “only trace amounts”.
Take `OC1CN2C[C@@H]3CCC[C@@H]3c3cccc(c32)CN1` (some centres unmarked) [Metabolite M1, hydroxy DCDQ]: the “metabolite detected in microsomal incubation” value (from here on “metabolite detected”) in data set [2] (setting [4]) and in data set [3] (setting [4]) was “not detected” throughout.
`OC1[C@@H]2CCC[C@@H]2c2cccc3c2N1CCNC3` (some centres unmarked) [Metabolite M2, hydroxy DCDQ]: the figures for the “metabolite detected” value in data set [2] (setting [4]) and in data set [3] (setting [4]) were “observed” and “only metabolite detected”, respectively.
As to `[O-][N+]12CCN=Cc3cccc(c31)[C@H]1CCC[C@H]1C2` (some centres unmarked) [Metabolite M5, DCDQ imine N-oxide], the entries for the “metabolite detected” value in data set [2] (setting [4]) and in data set [3] (setting [4]) were “detected” and “not mouse or rat”, respectively.
As to `O=C(O)[C@H]1O[C@@H](OC(=O)N2CCN3C[C@@H]4CCC[C@@H]4c4cccc(c43)C2)[C@H](O)[C@@H](O)[C@@H]1O` [Metabolite M6, carbamoyl glucuronide of DCDQ], the “metabolite detected” value is recorded as “detected” in data set [2] (UDPGA, 56 μM DCDQ) and “not mouse or rat” in data set [3] (UDPGA, 56 μM DCDQ).
Take `c1cc2c3c(c1)[C@H]1CCC[C@H]1CN3CCNC2` [[^14C]DCDQ]: the “dosed radioactivity in feces” value in data set [1] (0-8 hour fecal samples) is listed as “less than 0.1%”. In data set [1] (first 24 hours post-dosing), the “dosed radioactivity recovered in feces” value is on record as 21.1±2.1%.
